Results taken from patent US8158606B2, “β-L-2′-deoxynucleosides for the treatment of resistant HBV strains and combination therapies” (priority 2002, dated 2012).

How the values were obtained:
in vivo [1] = conditions: Sprague-Dawley, rat, 10 mg/kg
Protocol: (§12) The drug was detected and the concentration determined in plasma and urine using a reverse-phase HPLC technique. The data were analyzed by a non-modeling mathematical method and the AUCs derived by the linear trapezoidal rule.

[2] = Single dose bioavailability of L-dC in the cynomologus monkey; format: in vivo, cynomolgus monkey; conditions: for AUC(0-t) / half-life: n=3, mean; for AUC(0-t): read-out: AUClast of L-dC; for half-life: in vivo
Protocol: The pharmacokinetics of L-dC following IV and oral administration of L-dC to cynomolgus monkeys was determined.

human plasma proteins = format: in vitro ADME; conditions: ex vivo, ultrafiltration
[3] = system: human peripheral blood mononuclear cells (PBMCs), bone marrow progenitor cells and numerous cell lines; test: Cytotoxicity of L-dC; format: cell-based, human and other non-human mammalian
From the text: (§1) Human DNA polymerases and mitochondrial function were not affected by L-dC in vitro. L-dC was non-cytotoxic to human peripheral blood mononuclear cells (PBMCs), bone marrow progenitor cells and numerous cell lines of human and other non-human mammalian origin.

[4] = Single-dose bioavailability of L-dC in the rhesus monkey
Protocol: (§13) The drug was detected and concentration determined using a reverse-phase HPLC technique. The blood and urine drug level data were analyzed by a non-modeling mathematical method and AUCs derived by the linear trapezoidal rule.

[5] = Bioavailability of the prodrugs of L-dC; conditions: cynomolgus monkey, plasma, po, 10 mg/kg
in vivo [6] = conditions: rhesus monkey, po, 10 mg/kg
Protocol: as §13

[7] = Single-dose bioavailability of L-dC in the rat; conditions: Sprague-Dawley, plasma, 10 mg/kg
Protocol: as §12

[8] = system: L515M/M552I mutant HBV, cell line MI4; test: Antiviral testing in stable HepG2 cell lines, EPA of intracellular nucleocapsids; format: cell-based, hepatitis B virus; conditions: Hepatitis B virus, HepG2, L515M/M552I double mutant
Protocol: (§2) Recombinant DNA constructs corresponding to these lamivudine-resistant mutants were created by site directed mutagenesis. The test system comprised stable cell lines harboring each of the transfected mutant genomes, as well as a wild-type control HBV genome. The antiviral activity of LdT (telbivudine) and LdC, together with the control drugs lamivudine and PMEA, was determined against the mutant and wild-type HBV genomes in the respective test cell lines.
(§3) Endogenous Polymerase Assay (EPA) of cell lysate: Cells were grown in 12-well collagen plates to 100% confluency for 3-4 days and cytosolic lysates were prepared in 1 ml of 50 mM Tris-HCl pH 7.4, 150 mM NaCl, 5 mM MgCl2, 0.2% NP-40. EPAs were essentially performed as described (Seifer et al., 1998). […] The immobilized capsids were then washed, endogenous polymerase reactions were initiated in 50 ul reaction volume containing 50 mM Tris-HCl pH7.4, 75 mM NH4Cl, 1 mM EDTA, 20 mM MgCl2, 0.1 mM β-ME, 0.5% NP-40, 100 μM cold dGTP, TTP, dCTP, and 50 nM ^33P-dATP (Perkin Elmer Life Sciences Cat# NEG 612H), and incubated overnight at 37° C. Following digestion with 1 mg/ml of Proteinase K (Roche, Cat#1373196) for 1 h at 37° C., ^33P-labeled HBV DNA was liberated via phenol/chloroform extraction The nucleic acids were finally precipitated with equal volumes 5M NH4-acetate and 2.5 volumes 100% EtOH and separated on a 1% native agarose gel in Tris-borate buffer. Gels were either fixed with 7% TCA, then dried, or blotted onto positively charged nylon membrane (Pall Biodyne Plus Cat#60406) overnight at room temperature via capillary transfer in 0.4 N NaOH. Dried gels/membranes were exposed to a phosphoimager screen (Molecular Dynamics) overnight at room temperature, then scanned (Storm 860, Molecular Dynamics) and quantitated with ImageQuant (Molecular Dynamics) software.
(§4) 12-well Biocoat collagen I plates (Becton Dickinson Cat#35-4500) are seeded with cells at a density of 0.5-1×10^6 cells per well in 2 ml DMEM containing 5% FBS, 2 mM L-glutamine, 100 I.U. penicillin/100 μg/mL streptomycin, and 0.5 mg/mL G-418.
(§5) Drug dilutions are prepared freshly in 100% DMSO as 200× stocks. For each experiment, 4 aliquots of each drug dilution series are stored at −20° C. until used. Once cells reach confluency, drug treatment is initiated by adding 10 μL of drug dilution into 2 ml of fresh DMEM+5% FBS. […] The no-drug control well receives only 10 μl of DMSO. Cells are treated every other day with 2 mL of fresh drug/medium for a total of 8 days. Cell lysates are then collected on day 10 as described below:
(§6) Aspirate media and rinse cell monolayer carefully once with 1 mL of PBS.
(§7) Add 1 ml of lysis buffer (50 mM Tris-HCl pH 7.5/150 mM NaCl/5 mM MgCl2/0.2% NP-40). Store on ice for 30 min to 4 h.
(§8) Harvest lysed cells. Transfer to 1.5 ml microfuge tubes.
(§9) Clarify lysate by spinning for 5 min at RT and 14,000 rpm.
(§10) Transfer clarified lysate to fresh tubes. Snap-freeze on dry-ice and store at −80° C. until ready to continue with endogenous polymerase assays essentially as described above.
(§11) EC50's were generated from the phosphorimager data by curve fitting using Xlfit software.

[9] = system: M552V mutant HBV, cell line V1/C9; test: as above; format: cell-based, hepatitis B virus; conditions: M552V single mutant
Protocol: as §2, §3, §4, §5, §6, §7, §8, §9, §10, §11

[10] = system: M552I mutant HBV, cell line I2; test: as above; format: cell-based, hepatitis B virus; conditions: Hepatitis B virus, HepG2, M552I single mutant
Protocol: as §2, §3, §4, §5, §6, §7, §8, §9, §10, §11

[11] = system: L515M/M552V mutant HBV, cell line MV5/B3; test: as above; format: cell-based, hepatitis B virus; conditions: Hepatitis B virus, HepG2, L515M/M552V, cell line MV5/B3; mean ± SD of three to four experiments; read-out: EC50
Protocol: as §2, §3, §4, §5, §6, §7, §8, §9, §10, §11

[12] = system: Human DNA polymerases and mitochondrial function; test: Effect on human DNA polymerases and mitochondrial function in vitro
From the text: as §1

[13] = cynomolgus monkey, blood, L-dC 10 mg/kg single IV dose
[14] = cynomolgus monkey, blood, L-dC 10 mg/kg single oral dose
[15] = rhesus monkey, blood, po, 10 mg/kg

## Nc1ccn([C@@H]2CC(O)[C@H](CO)O2)c(=O)n1 (stereo partly drawn) [L-dC, 2′-Deoxy-β-L-cytidine]
In vivo [1]; po
  half-life: 2.52 h
In vivo [1]; female, iv
  half-life: 1.21 h
[2]; L-dC 10 mg/kg IV
  L-dC as share of the dose recovered in the urine: 94%
  administered dose recovered in urine within 2 hours: 71%
  renal clearance as share of total L-dC clearance: 87%
[2]; L-dC 10 mg/kg oral
  L-dC as share of drug excreted in the urine: ~69%
  administered oral dose recovered in urine after 72 hours: 15.5%
  administered oral dose recovered in urine within 12 hours: Approximately 8.5%
[2]; cynomolgus monkey, blood and urine, L-dC 10 mg/kg single IV dose, mean, read-out: renal clearance (CLR) (converted)
  CL renal: 7.67 mL/min/kg
[2]; cynomolgus monkey, blood, L-dC 10 mg/kg oral vs IV, mean, read-out: oral bioavailability (F)
  bioavailability: 16.4%
[2]; [13]
  Tmax: 0 h
  AUC(0-t): 81.1 µM·h
[2]; cynomolgus monkey, blood, L-dC 10 mg/kg single IV dose, mean, at 15 minutes post-dose
  Cmax: 95.7 µM
[2]; cynomolgus monkey, blood, L-dC 10 mg/kg single IV dose, mean, read-out: apparent volume of distribution (Vd)
  Vd: 1.22 L/kg
[2]; cynomolgus monkey, blood, L-dC 10 mg/kg single IV dose, mean, read-out: total clearance (CL) (converted)
  clearance: 8.83 mL/min/kg
[2]; [14]
  Cmax: 3.38 µM
  AUC(0-t): 13.7 µM·h
[2]; cynomolgus monkey, blood, L-dC 10 mg/kg single oral dose, mean
  Tmax: 2.33 h
[2]; cynomolgus monkey, L-dC 10 mg/kg single IV dose, read-out: t1/2 of L-dC (converted)
  half-life: 1.59 h
[2]; cynomolgus monkey, L-dC 10 mg/kg single oral dose, read-out: terminal t1/2 of L-dC (converted)
  half-life: 2.95 h
Human plasma proteins
  binding to human plasma proteins: 19.7%
[3]
  cytotoxicity in words: non-cytotoxic
[4]; L-dC 10 mg/kg oral
  L-dC as share of drug excreted in the urine: ~77%
  administered oral dose recovered in urine after 48 hours: 15%
  administered oral dose recovered in urine within 8 hours: Approximately 8.5%
[4]; rhesus monkey, blood and urine, po, 10 mg/kg
  CL renal: 4.55 mL/min/kg
[4]; [15]
  AUC: 12.2 µM·h
  Cmax: 3.23 µM
  Tmax: 0.83 h
  bioavailability: ~16%
[5]
  bioavailability: 16.4 ± 5%
In vivo [6]
  half-life: 3.34 h
[7]; oral
  bioavailability: 15.4%
[7]; po
  AUC(0-t): 4.77 µM·h
  Cmax: 1.5 µM
  Tmax: 1 h
[7]; female, iv
  AUC(0-t): 30.1 µM·h
  Cmax: 91.1 µM
  Tmax: 0 h
  Vd: 2.53 L/kg
  clearance: 24 mL/min/kg
[8]
  EC50: > 1000 µM
[9]
  activity against the mutant, in words: retained almost complete activity
[10]
  EC50: > 1000 µM
[11]
  EC50: ~780 µM
[12]
  effect on human DNA polymerases and mitochondrial function: not affected
